Test results published in patent US9833497B2, “Human originated EGF domain proteins and use of the same” (CHENGDU SOURCEBIO LIMITED-LIABILITY COMPANY, priority 2013, dated 2017).

How the values were obtained:
Format in all cases: cell-based
[1] = test system: E. coli DH5α; experiment: Antibacterial activity: MIC and growth curve against E. coli DH5α in 96-well plate; settings: minimal inhibitory concentration against E. coli DH5α; 96-well plate, 5×10^5 CFU/mL, 37° C., judged after 8 h
Procedure, shortened: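 Log-phase DH5α (OD600 about 0.5, 37° C, 185 rpm in LB) was pelleted, resuspended in fresh LB and seeded at 5×10^5 CFU/mL with recombinant protein at 50, 25 and 12.5 μg/mL (two-fold series), in triplicate. Plates were shaken at 175 rpm, 37° C, and OD600 was read every 30 min. MIC was the lowest concentration with no growth.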

[2] = test system: E. coli BL21; experiment: MIC against Gram-negative bacteria: E. coli BL21; settings: for MIC against E. coli BL21 / MIC (μg/mL) E. coli BL21 / MIC E. coli BL21: 5×10^5 CFU/mL
Procedure, shortened: (§1)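 The recombinant human-originated EGF domain proteins were serially diluted two-fold against bacteria at 5×10^5 CFU/mL in LB medium. After shaken incubation at 37° C, the lowest concentration with no bacterial growth was recorded as the MIC.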

[3] = test system: Pseudomonas aeruginosa; experiment: MIC against Gram-negative bacteria: Pseudomonas aeruginosa; settings: for MIC against P. aeruginosa / MIC (μg/mL) P. aeruginosa / MIC P. aeruginosa: 5×10^5 CFU/mL
Procedure, shortened: as §1

[4] = test system: Klebsiella pneumonia; experiment: MIC against Gram-negative bacteria: Klebsiella pneumonia; settings: for MIC against K. pneumonia / MIC (μg/mL) K. pneumonia / MIC K. pneumonia: 5×10^5 CFU/mL
Procedure, shortened: as §1

[5] = test system: Enterobacter cloacae; experiment: MIC against Gram-negative bacteria: Enterobacter cloacae; settings: for MIC against E. cloacae / MIC (μg/mL) E. cloacae / MIC E. cloacae: 5×10^5 CFU/mL
Procedure, shortened: as §1

[6] = test system: Aeromonas hydrophila; experiment: MIC against Gram-negative bacteria: Aeromonas hydrophila; settings: for MIC against A. hydrophila / MIC (μg/mL) A. hydrophila / MIC A. hydrophila: 5×10^5 CFU/mL
Procedure, shortened: as §1

[7] = test system: Citrobacter diversus; experiment: MIC against Gram-negative bacteria: Citrobacter diversus; settings: for MIC against C. diversus / MIC (μg/mL) C. diversus / MIC C. diversus: 5×10^5 CFU/mL
Procedure, shortened: as §1

[8] = test system: Moraxella catarrhalis; experiment: MIC against Gram-negative bacteria: Moraxella catarrhalis; settings: for MIC against M. catarrhalis / MIC (μg/mL) M. catarrhalis / MIC M. catarrhalis: 5×10^5 CFU/mL
Procedure, shortened: as §1

[9] = test system: Proteus mirabilis; experiment: MIC against Gram-negative bacteria: Proteus mirabilis; settings: for MIC against P. mirabilis / MIC (μg/mL) P. mirabilis / MIC P. mirabilis: 5×10^5 CFU/mL
Procedure, shortened: as §1

[10] = test system: Proteus vulgaris; experiment: MIC against Gram-negative bacteria: Proteus vulgaris; settings: for MIC against P. vulgaris / MIC (μg/mL) P. vulgaris / MIC P. vulgaris: 5×10^5 CFU/mL
Procedure, shortened: as §1

[11] = test system: Serratia marcescens; experiment: MIC against Gram-negative bacteria: Serratia marcescens; settings: for MIC against S. marcescens / MIC (μg/mL) S. marcescens / MIC S. marcescens: 5×10^5 CFU/mL
Procedure, shortened: as §1

[12] = E. coli BL21, 96-well plate, 37° C., 10 h
[13] = Pseudomonas aeruginosa, 96-well plate, 37° C., 10 h
[14] = Klebsiella pneumonia, 96-well plate, 37° C., 10 h
[15] = Enterobacter cloacae, 96-well plate, 37° C., 10 h
[16] = Aeromonas hydrophila, 96-well plate, 37° C., 10 h
[17] = Citrobacter diversus, 96-well plate, 37° C., 10 h
[18] = Moraxella catarrhalis, 96-well plate, 37° C., 10 h
[19] = Proteus mirabilis, 96-well plate, 37° C., 10 h
[20] = Proteus vulgaris, 96-well plate, 37° C., 10 h
[21] = Serratia marcescens, 96-well plate, 37° C., 10 h
[22] = E. coli BL21, 10 h cultivation at 37° C.
[23] = P. aeruginosa, 10 h cultivation at 37° C.
[24] = K. pneumonia, 10 h cultivation at 37° C.
[25] = E. cloacae, 10 h cultivation at 37° C.
[26] = A. hydrophila, 10 h cultivation at 37° C.
[27] = C. diversus, 10 h cultivation at 37° C.
[28] = M. catarrhalis, 10 h cultivation at 37° C.
[29] = P. mirabilis, 10 h cultivation at 37° C.
[30] = P. vulgaris, 10 h cultivation at 37° C.
[31] = S. marcescens, 10 h cultivation at 37° C.

PRT1226 (YTASCQDMSCSKQGECLETIGNYTCSCYPGFYGPECE; listed as Homo sapiens)
50 µg/mL: MIC against E. coli BL21 [2, 12] | MIC against C. diversus [7, 17] | MIC against P. mirabilis [9, 19]
25 µg/mL: MIC [1] | MIC against P. aeruginosa [3, 13] | MIC against E. cloacae [5, 15] | MIC against A. hydrophila [6, 16] | MIC against S. marcescens [11, 21]
12.5 µg/mL: MIC against K. pneumonia [4, 14] | MIC against M. catarrhalis [8, 18] | MIC against P. vulgaris [10, 20]

PRT128 (CLPSYCEHGGECSQSWDTFSCDCLGTGYTGETC; listed as Homo sapiens)
50 µg/mL: MIC (μg/mL) S. marcescens [11, 21]
25 µg/mL: MIC (μg/mL) E. coli BL21 [2, 12] | MIC (μg/mL) K. pneumonia [4, 14]
12.5 µg/mL: MIC [1] | MIC (μg/mL) P. aeruginosa [3, 13] | MIC (μg/mL) E. cloacae [5, 15] | MIC (μg/mL) A. hydrophila [6, 16] | MIC (μg/mL) C. diversus [7, 17] | MIC (μg/mL) M. catarrhalis [8, 18] | MIC (μg/mL) P. mirabilis [9, 19] | MIC (μg/mL) P. vulgaris [10, 20]

PRT465 (ALDPCASGPCLNGGSCSNTQDPQSYHCSCPRAFTGKDCG; listed as Homo sapiens)
50 µg/mL: MIC [1] | MIC against P. aeruginosa ([3]; 96-well plate, 37° C., 10 h) | MIC against E. cloacae ([5]; 96-well plate, 37° C., 10 h) | MIC against C. diversus ([7]; 96-well plate, 37° C., 10 h) | MIC against P. mirabilis ([9]; 96-well plate, 37° C., 10 h) | MIC against S. marcescens ([11]; 96-well plate, 37° C., 10 h)
12.5 µg/mL: MIC against E. coli BL21 ([2]; 96-well plate, 37° C., 10 h) | MIC against K. pneumonia ([4]; 96-well plate, 37° C., 10 h) | MIC against A. hydrophila ([6]; 96-well plate, 37° C., 10 h) | MIC against M. catarrhalis ([8]; 96-well plate, 37° C., 10 h) | MIC against P. vulgaris ([10]; 96-well plate, 37° C., 10 h)

PRT463 (DVNECLQLPKACAYQCHNLQGSYRCLCPPGQTLLRDGKACT; listed as Homo sapiens)
50 µg/mL: MIC [1] | MIC against P. aeruginosa ([3]; 96-well plate, 37° C., 10 h) | MIC against E. cloacae ([5]; 96-well plate, 37° C., 10 h) | MIC against C. diversus ([7]; 96-well plate, 37° C., 10 h) | MIC against S. marcescens ([11]; 96-well plate, 37° C., 10 h)
12.5 µg/mL: MIC against E. coli BL21 ([2]; 96-well plate, 37° C., 10 h) | MIC against K. pneumonia ([4]; 96-well plate, 37° C., 10 h) | MIC against A. hydrophila ([6]; 96-well plate, 37° C., 10 h) | MIC against M. catarrhalis ([8]; 96-well plate, 37° C., 10 h) | MIC against P. mirabilis ([9]; 96-well plate, 37° C., 10 h) | MIC against P. vulgaris ([10]; 96-well plate, 37° C., 10 h)

PRT703 (NCSRLGCQHHCVPTLDGPTCYCNSSFQLQADGKTCK; listed as Homo sapiens)
50 µg/mL: MIC E. coli BL21 ([2]; 96-well plate, 37° C., 10 h) | MIC E. cloacae ([5]; 96-well plate, 37° C., 10 h) | MIC M. catarrhalis ([8]; 96-well plate, 37° C., 10 h) | MIC S. marcescens ([11]; 96-well plate, 37° C., 10 h)
12.5 µg/mL: MIC P. aeruginosa ([3]; 96-well plate, 37° C., 10 h) | MIC C. diversus ([7]; 96-well plate, 37° C., 10 h) | MIC P. vulgaris ([10]; 96-well plate, 37° C., 10 h)
25 µg/mL: MIC [1] | MIC K. pneumonia ([4]; 96-well plate, 37° C., 10 h) | MIC A. hydrophila ([6]; 96-well plate, 37° C., 10 h) | MIC P. mirabilis ([9]; 96-well plate, 37° C., 10 h)

PRT496 (CSCNNHSDTCDPNTGKCLNCGDNTAGDHCDVCTSGYYGKVTGSASDCAL; listed as Homo sapiens)
50 µg/mL: MIC against P. aeruginosa ([3]; 96-well plate, 37° C., 10 h) | MIC against E. cloacae ([5]; 96-well plate, 37° C., 10 h) | MIC against C. diversus ([7]; 96-well plate, 37° C., 10 h) | MIC against P. vulgaris ([10]; 96-well plate, 37° C., 10 h)
25 µg/mL: MIC against P. mirabilis ([9]; 96-well plate, 37° C., 10 h) | MIC against S. marcescens ([11]; 96-well plate, 37° C., 10 h)
12.5 µg/mL: MIC [1] | MIC against E. coli BL21 ([2]; 96-well plate, 37° C., 10 h) | MIC against K. pneumonia ([4]; 96-well plate, 37° C., 10 h) | MIC against A. hydrophila ([6]; 96-well plate, 37° C., 10 h) | MIC against M. catarrhalis ([8]; 96-well plate, 37° C., 10 h)

PRT676 (DINECAMPGVCRHGDCLNNPGSYRCVCPPGHSLGPSRTQCI; listed as Homo sapiens)
12.5 µg/mL: MIC P. aeruginosa ([3]; 96-well plate, 37° C., 10 h) | MIC A. hydrophila ([6]; 96-well plate, 37° C., 10 h) | MIC P. mirabilis ([9]; 96-well plate, 37° C., 10 h) | MIC S. marcescens ([11]; 96-well plate, 37° C., 10 h)
25 µg/mL: MIC [1] | MIC E. cloacae ([5]; 96-well plate, 37° C., 10 h) | MIC M. catarrhalis ([8]; 96-well plate, 37° C., 10 h)
50 µg/mL: MIC E. coli BL21 ([2]; 96-well plate, 37° C., 10 h) | MIC K. pneumonia ([4]; 96-well plate, 37° C., 10 h) | MIC C. diversus ([7]; 96-well plate, 37° C., 10 h) | MIC P. vulgaris ([10]; 96-well plate, 37° C., 10 h)

PRT906 (LVHWCDSSPCKNGGKCWQTHTQYRCECPSGWTGLYCD; listed as Homo sapiens)
50 µg/mL: MIC [1] | MIC [5, 25] | MIC [8, 28]
25 µg/mL: MIC [2, 22] | MIC [4, 24] | MIC [7, 27] | MIC [9, 29] | MIC [11, 31]
12.5 µg/mL: MIC [3, 23] | MIC [6, 26] | MIC [10, 30]

PRT851 (DELDCGPSNCSQHGLCTETGCRCDAGWTGSNCS; listed as Homo sapiens)
12.5 µg/mL: MIC (μg/mL) E. coli BL21 [2, 22] | MIC (μg/mL) K. pneumonia [4, 24] | MIC (μg/mL) E. cloacae [5, 25] | MIC (μg/mL) A. hydrophila [6, 26] | MIC (μg/mL) C. diversus [7, 27] | MIC (μg/mL) M. catarrhalis [8, 28] | MIC (μg/mL) P. vulgaris [10, 30]
25 µg/mL: MIC [1] | MIC (μg/mL) P. aeruginosa [3, 23] | MIC (μg/mL) P. mirabilis [9, 29] | MIC (μg/mL) S. marcescens [11, 31]

PRT1396 (LGADCAKAACPVLCSGNGQYSKGTCQCYSGWKGAECD; listed as Homo sapiens)
12.5 µg/mL: MIC [1] | MIC against E. coli BL21 [2, 22] | MIC against P. aeruginosa ([3]; Pseudomonas aeruginosa, 10 h cultivation at 37° C.) | MIC against K. pneumonia ([4]; Klebsiella pneumonia, 10 h cultivation at 37° C.) | MIC against C. diversus ([7]; Citrobacter diversus, 10 h cultivation at 37° C.) | MIC against P. mirabilis ([9]; Proteus mirabilis, 10 h cultivation at 37° C.) | MIC against S. marcescens ([11]; Serratia marcescens, 10 h cultivation at 37° C.)
25 µg/mL: MIC against E. cloacae ([5]; Enterobacter cloacae, 10 h cultivation at 37° C.) | MIC against A. hydrophila ([6]; Aeromonas hydrophila, 10 h cultivation at 37° C.) | MIC against M. catarrhalis ([8]; Moraxella catarrhalis, 10 h cultivation at 37° C.) | MIC against P. vulgaris ([10]; Proteus vulgaris, 10 h cultivation at 37° C.)
